Laboratory results: publication PMC10149936, “Cofilin activation in pancreatic acinar cells plays a pivotal convergent role for mediating CCK-stimulated enzyme secretion and growth” (Frontiers in Physiology, 2023)

Legend:
Format in all cases: cell-based
[1] = test system: p44/42 MAPK in AR42J cells; test: p44/42 MAPK activation (pT202/Y204 Western blot) in AR42J cells; settings: Cytochalasin D 10 µM or Paclitaxel 5 µM, 4 h; A71378 30 nM 10 min
Procedure: (§1) CCK1 receptor transfected Panc-1 (CCK1-R/Panc-1) cells ([Berna et al., 2009]) and AR42J cells, were cultured in DMEM supplemented with 10% FBS and 1% penicillin/streptomycin and in RPMI supplemented with 10% FBS and 1% penicillin/streptomycin, respectively; and split 1:10 weekly with trypsin/EDTA, after washing in PBS. Finally, cells were seeded in 6-well plate and serum starved overnight, until they were 80% confluent. Cells were incubated at 37°C in 5% CO2/95% air. AR42J cells were treated with 100 nM dexamethasone for 72°h, which stimulates their differentiation into exocrine cells ([Logsdon, 1986]).
Western blotting and immunoprecipitation were performed as described previously ([Ramos-Alvarez and Jensen, 2018]). Whole cell lysates were subjected to SDS-PAGE using 4%–20% Tris–Glycine gels. […] The intensity of the protein bands was measured using GeneTools software from Syngene, which were assessed in the linear detection range. […]
FIGURE 12 Effect of two cofilin inhibitors, Cytochalasin D or Paclitaxel (A, B), or cofilin siRNA (C), on the ability of A71378 (30 and 10 nM) to alter activation of cofilin (A) and p44/42 (B, C). […] Western blots were analyzed using anti-pS3 cofilin, anti-pT202/Y204 p44/42 and Tubulin. Bands were visualized using chemiluminescence and quantified by densitometry. […] Results are expressed as % of basal stimulation of the control group. […]

[2] = test system: AR42J cells; test: amylase release from AR42J cells (Phadebas); settings: Cytochalasin D 10 µM or Paclitaxel 5 µM; for inhibition of CCK-8/A71378-induced amylase secretion: 4 h, CCK-8 and A71378 (0.03 and 1 nM), 30 min; for effect on basal amylase release: AR42J (Figure 13B)
Procedure: as §1
For siRNA-mediated knockdown, 5 × 10^5 CCK1-R/Panc-1 or AR42J cells were seeded into 6-well plates and incubated for 24 h. Cells were then transfected with 10 nM of siRNA against human SSH1 siRNA against human cofilin (Dharmacon. Lafayette, CO) in Opti-MEM medium for 48 h using Lipofectamine according to the manufacture’s instruction.
Amylase release was performed as described previously ([Sato et al., 1989]; [Ramos-Alvarez and Jensen, 2018]). Amylase activity was determined after 30 min incubation using the Phadebas reagent and was expressed as percentage of the total cellular amylase released into the extracellular medium during the incubation ([Ramos-Alvarez and Jensen, 2018]).
FIGURE 13 Effect of two cofilin inhibitors, Cytochalasin D or Paclitaxel, (A, B), or Cofilin siRNA (C), on the ability of CCK/TPA/A71378-stimulated amylase release form pancreatic acini (A) or AR42J cells (B, C). In (A, B) pancreatic acini and AR42J cells were incubated in the absence or presence of Cytochalasin D (10 µM) or Paclitaxel (5 µM) for 4 h and then incubated with no additions (control) or CCK-8 (0.03, 0.3, 1 and 100 nM), TPA (1 µM) or A71378 (0.03 and 1 nM) for 30 min and then lysed. In (B, C) AR42J cells were treated with Dexamethasone (100 nM) for 72 h, and in (C) AR42J cells were transfected with siRNA Non-targeting Control and siRNA against cofilin for 48 h, and then incubated with no addition (control) or CCK-8 (0.03 and 1 nM) and A71378 (0.03 and 1 nM) for 30 min. Amylase release, expressed as percent of cellular total amylase secreted, was determined after 30 min incubation. Means ± S.E. of at least 3 independent experiments. N.S., No significant.

[3] = test system: LIMK (pT508) in pancreatic acini; test: LIMK phosphorylation (pT508 LIMK Western blot) in isolated rat pancreatic acini
Procedure: Pancreatic acini preparations were obtained by collagenase digestion as previously described ([Bissonnette et al., 1984]; [Sato et al., 1989]; [Ramos-Alvarez and Jensen, 2018]). After collagenase digestion, dispersed acini were preincubated with different inhibitors in standard incubation solution ([Ramos-Alvarez and Jensen, 2018]; [Ramos-Ãlvarez et al., 2020]) for 3 h at 37°C under conditions specific for PKD/PKC, Src, PI3K, MAPKs, SSH1, LIMK, cofilin, other phosphatases and PAK4 inhibitors, as described previously ([Ramos-Alvarez and Jensen, 2018]; [Ramos-Ãlvarez et al., 2020]). Isolated acini and CCK1-R/Panc-1 cells (M&M 2.2.1) were also preincubated with two SSH1 inhibitors, D3 (25 μM, 1 h) ([Li et al., 2015]) or SE (50 μM, 3 h for acini; 24 h for CCK1-R/Panc-1 cells) ([Lee et al., 2017]). After preincubation, 1 mL aliquots of dispersed acini were incubated at 37°C for 3–15 min with CCK-8 (0.3 nM or 100 nM), for 5–15 min with TPA (1 µM) or without stimulants, used as control. Cells were lysed in lysis buffer (50 mM Tris/HCl pH 7.5, 150 mM NaCl, 1% Triton X-100, 1% deoxycholate, 0.1% sodium azide, 1 mM EGTA, 0.4 mM EDTA, 0.2 mM sodium orthovanadate, 1 mM PMSF, and one protease inhibitor tablet per 10 mL). After sonication, lysates were centrifuged at 10,000×g for 15 min at 4°C and protein concentration was measured using the Bio-Rad protein assay reagent. Finally, cells were processed as below for Western blotting.
Both concentrations of CCK-8 were used because CCK-8 is reported to have different responses with physiological and supraphysiological concentrations contributing to physiological and pathophysiological processes such as pancreatitis ([Dufresne et al., 2006]).
Western blotting and immunoprecipitation were performed as described previously ([Ramos-Alvarez and Jensen, 2018]). Whole cell lysates were subjected to SDS-PAGE using 4%–20% Tris–Glycine gels. […] Finally, membranes were then washed again twice in blocking buffer for 4 min, twice in washing buffer for 4 min, incubated for 4 min with chemiluminescence detection reagents. The intensity of the protein bands was measured using GeneTools software from Syngene, which were assessed in the linear detection range.
Isolated pancreatic acini were incubated with either no addition (control), CCK-8 (0.3 and 100 nM) or TPA (1 µM) for the indicated periods of time and then lysed. Western blots were analyzed using anti-pT508 LIMK, anti-pS3 cofilin and anti-pS978 SSH1, which […] the activation states of LIMK, cofilin and SSH1. Bands were visualized using chemiluminescence and quantified by densitometry.

Compound	decrease of A71378-mediated activation of p44/42 [1] [%]	inhibition of CCK-8/A71378-induced amylase secretion [2]	effect on basal amylase release [2]	effect on LIMK dephosphorylation ([3]; TPA 1 µM)	time of return of LIMK phosphorylation to basal levels ([3]; CCK-8 0.3 or 100 nM) [min]
C=C1[C@@H](C)[C@H]2[C@H](Cc3ccccc3)NC(=O)[C@]23[C@H](OC(C)=O)/C=C/[C@@](C)(O)C(=O)[C@@H](C)C/C=C/[C@H]3[C@@H]1O [Cytochalasin D]	34	completely inhibited	Neither of these two cofilin inhibitors influenced basal amylase release	–	–
CC(=O)O[C@H]1C(=O)[C@@]2(C)[C@H]([C@H](OC(=O)c3ccccc3)[C@]3(O)C[C@H](OC(=O)[C@H](O)[C@@H](NC(=O)c4ccccc4)c4ccccc4)C(C)=C1C3(C)C)[C@]1(OC(C)=O)CO[C@@H]1C[C@@H]2O [Paclitaxel]	36	completely inhibited	Neither of these two cofilin inhibitors influenced basal amylase release	–	–
CCCCCCCCCCCCCC(=O)O[C@@H]1[C@@H](C)[C@@]2(O)[C@@H](C=C(CO)C[C@]3(O)C(=O)C(C)=C[C@@H]23)[C@H]2C(C)(C)[C@]12OC(C)=O [TPA, 12-O-tetradecanoylphobol-13-acetate]	–	–	–	did not cause LIMK dephosphorylation	–
COOH-terminal octapeptide of cholecystokinin [CCK-8]	–	–	–	–	30
